Test: gradient 5% acetonitrile 3 min, to 50% in 2 min, to 85% in 15 min, held 3 min, 100 µL/min
Conditions: column: Zorbax Extend-C18 2.1 x 50 mm; eluents: water / acetonitrile, 0.1% formic acid
Procedure, shortened: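 The mobile phases were water and acetonitrile, each with 0.1% formic acid, pumped at 100 μL/min through a Zorbax Extend-C18 column (2.1 × 50 mm, 1.8 μm). Pure standards were injected as mixtures of ~100 molecules and detected by a quadrupole time-of-flight mass spectrometer in positive and negative ionization mode. Retention time came from computationally picked adduct peaks, each inspected by hand.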

RP-LC retention time [s] | SMILES
833 | COc1cccc(N2CCN(C(=O)Cc3csc4nc(-c5ccccc5)cn34)CC2)c1
978 | O=c1c2ccccc2n(Cc2nc(-c3ccccc3)no2)c(=O)n1CC1CCCO1 (centres undefined)
842 | Cc1ccc(NC(=O)C2CC(=O)N(CCc3c[nH]c4ccc(C)cc34)C2)c(C)c1 (centres undefined)
626 | Cc1cc(NC(=O)CSc2nc(-c3cccnc3)ccc2C#N)no1
980 | CCCn1ccc2sc(C)c(C(=O)NCc3ccccc3Cl)c2c1=O
833 | CCn1cc(S(=O)(=O)N2C[C@H]3CN(S(=O)(=O)c4cccc(C)c4)C[C@@H](C2)O3)cn1
735 | COC(=O)c1c(C)[nH]c(C(=O)N2CCCC(C(=O)NCc3ccc(OC)cc3)C2)c1C (centres undefined)
898 | CCN1CCN(C2=NCCN2C(=O)c2ccccc2Br)CC1
639 | Nc1ccc(Nc2ccccc2)c(S(=O)(=O)O)c1
927 | COc1ccc(-n2ncc3c(=O)n(Cc4nc(-c5cc(OC)c(OC)c(OC)c5)no4)cnc32)cc1
929 | CSc1cccc(NC(=O)NC2CCN(c3ccc(C)c(C)c3)C2=O)c1 (centres undefined)
679 | Cc1sc(NC(=O)CCC2CCCCC2)nc1-c1ccc2c(c1)NC(=O)C(C)O2 (centres undefined)
699 | CCOc1ccc(CNC(=O)Cc2nnc(-c3ccccn3)o2)cc1
750 | CSc1ccc(CNC(=O)C2CCCN(c3ncnc4nn(-c5ccc(C)cc5)cc34)C2)cc1 (centres undefined)
684 | O=C(Nc1c(-c2ccccc2)nc2ccccn12)c1ccc(Br)cc1
773 | COc1ccc(-c2nc3cccc(C)n3c2Nc2ccccc2C)cc1
726 | O=C(c1ccc(F)cc1)N1CCCC1c1nc(-c2ccccc2)n[nH]1 (centres undefined)
948 | CCOC(=O)c1noc2ncnc(N(CC)c3ccccc3)c12
998 | CCc1nc2ccccc2c(=O)n1Cc1noc(-c2ccc(F)cc2)n1
871 | Cc1nc(C(=O)NCc2cccc(Cl)c2)c(C)o1
632 | O=C(Cc1ccccc1F)NCC(=O)Nc1nc2ccccc2[nH]1
784 | Cn1ncc2c3ccccc3n(CC(=O)N3CCN(c4ccccc4)CC3)c2c1=O

RP-LC retention time [s] | SMILES
976 | CCOc1ccccc1NC(=O)CN1C(=O)C(C)(C)c2ccccc21
870 | Cc1oc2ccn(Cc3ccc(F)cc3)c(=O)c2c1C(=O)NCC1CCCO1 (centres undefined)
746 | Clc1ccc2nc(-c3ccccc3)c(Nc3ccc4c(c3)OCCO4)n2c1
902 | O=C(CS(=O)Cc1cnn(-c2ccccc2)c1-n1cccc1)N1CCCCCC1 (centres undefined)
601 | O=C(NCc1cc(F)ccc1F)c1cn2c(n1)CCCC2
866 | Cc1nnc2ccc(S(=O)(=O)N(Cc3cccc(F)c3)c3ccccc3)cn12
800 | Cc1nc(-c2noc(-c3ccccc3)n2)cn1CC(=O)NCc1ccc2c(c1)OCO2
857 | O=C(Cn1cnc(-c2noc(-c3ccc(F)cc3)n2)c1)NCc1ccc(F)cc1
1030 | COc1ccc(CNC(=O)c2cc3sc(Cl)cc3n2C)cc1
624 | CCN(CC)C(=O)c1ccc2c(c1)N(CC(=O)NCCOC)C(=O)CO2
594 | Cc1nn(C)c(C)c1C(C)NC(=O)CCC1CCCN(c2cc(NC3CC3)ncn2)C1 (centres undefined)
1260 | Cc1ccc(C2Cn3nc(-c4nc(-c5ccccc5)no4)cc3CO2)cc1 (centres undefined)
1080 | COc1ccc(-c2nc(-c3ccc4oc(C)nc4c3)no2)cc1F
647 | Nc1cc(C2CCN(C(=O)c3nccc4ccccc34)CC2)no1
1270 | CCc1nc2cc(-c3noc(-c4cc(F)ccc4Cl)n3)ccc2o1
1050 | O=C(Nc1nc(-c2ccc(F)cc2)cs1)c1c(-c2ccc(F)cc2)nc2n1CCS2(=O)=O
735 | COCCN1CCn2cc(S(=O)(=O)NCc3ccc(F)cc3Cl)cc2C1=O
970 | COc1ccc(-n2c(=O)n(C)c(=O)c3cc(C(=O)Nc4cc(F)cc(F)c4)cnc32)cc1
1070 | Cc1cc(C)c(S(=O)(=O)N2CCc3c(c(-c4nnc(-c5ccccc5)o4)nn3C)C2)cc1C
633 | Cc1ccc(CNC(=O)C2Cn3cccc3C(=O)N2)o1 (centres undefined)
557 | CCOCC(=O)N1CCc2nc(N3CCN(C)CC3)sc2C1
872 | CCC1(C(=O)Nc2ccc(C(C)C)cc2)CCCCC(=O)N1 (centres undefined)

RP-LC retention time [s] | SMILES
705 | COCc1noc([C@@H]2CC(F)(F)CN2C(=O)c2c(C)noc2C)n1
770 | Cc1cc(Cl)ccc1NC(=O)CC1COc2ccccc2NC1=O (centres undefined)
923 | O=C(Cn1nc2c3cc(-c4ccc(F)cc4)nn3ccn2c1=O)Nc1ccc(Br)cc1
722 | COc1ccc(C)cc1NC(=O)Nc1c(-c2ccc(C)cc2)nc2ccccn12
595 | CN(C)C[C@@H]1CN(c2ccncn2)C[C@H]1NC(=O)c1ccc2ccccc2n1
610 | CN1C(=O)C(C)(C)c2cc(S(=O)(=O)N(C)CC(=O)N3CCN(c4ccccn4)CC3)ccc21
809 | COc1ccccc1N1CCN(S(=O)(=O)c2ccc3c(c2)CCCC(=O)N3)CC1
1190 | Cc1ccccc1NC(=O)C1CCCN(c2nc3ccccc3nc2C(F)(F)F)C1 (centres undefined)
754 | CC1(c2nc(-c3ccccc3)no2)CCCN(Cc2ncon2)C1 (centres undefined)
1190 | FC(F)(F)c1nnc2c(Sc3ccccc3)nc3ccc(Cl)cc3n12
662 | O=C(Cn1cnc2nc3c(cc2c1=O)CCCC3)NC1CCCCCC1
908 | COC(=O)c1ccc2c(=O)n(-c3ccccc3)c(N3CCCC3)nc2c1
920 | COC(=O)C1=CN(c2ccc(C)c(F)c2)c2ccc(F)cc2S1(=O)=O
818 | COc1ccc(NC(=O)c2c(C)oc3nc(C)nc(N4CCOCC4)c23)c(OC)c1
669 | NC(=O)c1ccsc1NC(=O)c1ccccc1[N+](=O)[O-]
659 | CC1(C)CC(=O)C2=C(C1)N(Cc1cccnc1)C(=O)C2(NC(=O)C1CCCCC1)C(F)(F)F (centres undefined)
918 | COc1ccc(Cn2nc3ccc(S(=O)(=O)N4CCCCC4)cn3c2=O)cc1F
862 | COc1ccccc1NC(=O)C1c2cc(OC)c(OC)cc2C(=O)N2CCc3ccccc3C12 (centres undefined)
807 | CCc1c(C(=O)NNC(=O)[C@@H](O)c2cc(F)cc(F)c2)ccc(O)c1C
537 | O=C(NCCc1ccncc1)C1CCCN(c2nnc3ccc(C(F)(F)F)cn23)C1 (centres undefined)
657 | COCCNc1nc(-c2cccc(Cl)c2)nnc1C
939 | Fc1ccc(OCc2nc(-c3cccc(-c4ccn[nH]4)c3)no2)cc1

RP-LC retention time [s] | SMILES
623 | CN(CCCNC(=O)c1ccc2c(c1)NC(=O)C1CCCCN21)C1CCCCC1 (centres undefined)
1070 | O=C(Nc1ccc(-c2nc(-c3ccccc3)no2)cc1)C1CC(=O)N(C2CCCCC2)C1 (centres undefined)
770 | COc1cccc(CC(=O)N2CCC(C(=O)NCCc3csc(-c4cccs4)n3)CC2)c1
887 | Cc1cccc2c(=O)n(C)c(CCC(=O)NCc3ccc(Br)cc3)nc12
746 | Cc1cc(NC(=O)C2CC2)nn1Cc1ccccc1
1060 | CCCCN1C(=O)C(C)(C(=O)Nc2ccc(C)cc2)Oc2cccnc21 (centres undefined)
940 | CCOc1ccc(NC(=O)N2CCCC2c2nc(-c3ccc(OC)cc3)no2)cc1 (centres undefined)
730 | O=C(CSc1nccn1-c1ccc([N+](=O)[O-])cc1)NC1CCCCC1
688 | CCOc1cc(=O)n2c(c1C(=O)NCc1ccc(C)o1)CCCCC2
842 | Cc1nc(N)n(CC(=O)NCc2ccc(F)cc2)c(=O)c1C
656 | COc1ccc(OC)c(S(=O)(=O)N2CCC(Cc3ncc(C)n3C3CC3)C2)c1 (centres undefined)
601 | CCOCCCNC(=O)N1CCC(c2cc(N)on2)CC1
739 | O=C(NCc1ccc(Cl)cc1)c1ccc2ccnc(N3CCN(C(=O)c4ccco4)CC3)c2c1
885 | COc1ccc(C(=O)N(C2CCCC2)C2(C(=O)NCc3ccccc3)CCN(C(C)=O)CC2)cc1
561 | COCC1CN(C2CCC2)CC12CCN(C(=O)C1CCN(C(C)=O)CC1)CC2 (centres undefined)
979 | O=C(Cn1nc(N2CCSCC2)c2ccccc2c1=O)Nc1ccccc1Cl
829 | Cc1ccc(NC(=O)N2CCOCCNC(=O)[C@H]3CCCC[C@H]32)cc1C
698 | O=C(NCCc1ccsc1)C1CC(=O)N(c2ccc(F)cc2)C1 (centres undefined)
732 | COc1cccc(CNC(=O)C2(C)CCN(C(=O)Nc3cc(OC)c(OC)c(OC)c3)CC2)c1
699 | CCn1cc(CCNC(=O)c2cncc(Br)c2)c2cccnc21
739 | O=C1NCCCn2cc(S(=O)(=O)Nc3ccc(OC(F)(F)F)cc3)cc21

SMILES | RP-LC retention time [s]
Cc1ncc2c(n1)C[C@@H]1CC[C@H]2N1C(=O)c1cccnc1 | 570
COc1ccc2c(c1)C1(CCN(C(=O)NCc3ccc(C)cc3)C1)C(=O)N2 (centres undefined) | 725

Reference: the METLIN SMRT retention time set (Domingo-Almenara et al. 2019)
